Test results published in PMC7353089, “The Hepatotoxicity of Alantolactone and Germacrone: Their Influence on Cholesterol and Lipid Metabolism in Differentiated HepaRG Cells” (Nutrients, 2020).
“Also recorded” adds a separate entry of the source. Like-named read-outs stand apart in the source and are kept apart here.

Experiments:
STAT3 = test: Western blot protein level in dHepaRG cells; format: cell-based, human; details: highest tested concentration (equal to IC50)
Protocol: (§1) All the treatments were performed in triplicates. Protein concentration was measured using the bicinchoninic acid (BCA) protein assay (Sigma Aldrich, Prague, Czech Republic) according to the manufacturer’s instructions. The proteins were loaded onto a 10% sodium dodecyl sulfate (SDS; w/v)–polyacrylamide gel (with 4% stacking gel) and separated by SDS-PAGE electrophoresis. The proteins were transferred onto a nitrocellulose membrane using wet blot (100 V, 90 min). The membrane blocking was performed in a 5% non-fat dry milk/TRIS-buffered saline-Tween-20 (TBS-T) solution at room temperature for 2 h. Incubation with primary antibodies was accomplished overnight at 10 °C. β-actin was used as housekeeping protein (the list of primary antibodies in Table S2). Afterwards, the membrane was washed with 0.05% TBS-T solution for 6 × 5 min, incubated with respective secondary antibodies conjugated with horseradish peroxidase (bovine anti-rabbit (sc2370, Santa Cruz Biotechnology, Santa Cruz, CA, USA) at room temperature for 1.5 h, and rinsed with TBS-T solution for 6 × 5 min. Visualization of protein bands was carried out using a chemiluminescence kit (GE Healthcare, Buckinghamshire, UK).

HMGCR = test: Western blot protein level in dHepaRG cells; format: cell-based, human
Protocol: as §1

p-STAT3(Y705) = test: Western blot protein level in dHepaRG cells; format: cell-based, human; details: for phosphorylated p-STAT3(Y705) protein amount: 12-h exposure
Protocol: as §1

RIP1 = test: Western blot protein level in dHepaRG cells; format: cell-based, human
Protocol: as §1

ICAM-1 = test: Western blot protein level in dHepaRG cells; format: cell-based, human
Protocol: as §1

SREBP-2 (F) = test: Western blot protein level in dHepaRG cells; format: cell-based, human; details: single exposure
Protocol: as §1

NF-κB = test: Western blot protein level in dHepaRG cells; format: cell-based, human
Protocol: as §1

CYP19A1 mRNA = test: RT-qPCR mRNA expression in dHepaRG cells; format: cell-based, human
Protocol: (§3) Three concentrations were selected for each compound (non-toxic, non-toxic/slightly toxic and toxic). The cholesterol level of the dHepaRG cells was measured after a multiple exposure of the highest non-toxic concentrations of tested compounds. […] The expression changes of genes and proteins related to cholesterol metabolism were measured in both single and multiple exposure experiments.
All treatments were performed in triplicates and every experiment was performed three times. The cells were washed twice with ice cold phosphate-buffered saline (PBS), scrapped and stored at −80 °C until use. Total RNA from cells was isolated using TriReagent according to the manufacturer’s instructions (Biotech, Prague, Czech Republic). The purified RNA was dissolved in 40 µL of diethyl pyrocarbonate (DEPC)-treated water (0.01% DEPC in HPLC water, autoclaved) and stored at −80 °C. The measurement of absorbance at 260 and 280 nm using the NanoDrop ND-1000 UV–VIS Spectrophotometer (Thermo Fisher Scientific, Pardubice, Czech Republic) was used to determine RNA yields and purity. Subsequently, the RNA (4 µg) was treated with 2 U of DNase I (New England Biolabs, Ipswich, MA, USA) in a final volume of 30 µL for 25 min at 37 °C, 1.5 µL of 0.1 M ethylenediaminetetraacetic acid was added and the DNAse was inactivated by heat (5 min at 75 °C). The solution was diluted to a concentration of 0.1 µg/µL. The DNAse treated RNA was stored at −80 °C until further analyses. The first strand cDNA was synthesized from 800 ng of total RNA and 1 µL of 50 µM random hexamers (Generi Biotech, Hradec Kralove, Czech Republic) using ProtoScript II reverse transcriptase (New England Biolabs, Ipswich, MA, USA). After the initial heat denaturation of total RNA (65 °C for 5 min), 4 µL of 5× ProtoScript II RT Reaction Buffer, 2 µL of 10× dithiothreitol (DTT), 2 µL of deoxynucleotide (dNTP) Mix 5 mM, 3.5 µL of H2O, and 0.5 µL of ProtoScript II 200 U/µL were added and mixed by pipetting. The reactions (20 µL) were incubated for 10 min at 25 °C, for 50 min at 42 °C, and for 5 min at 80 °C. The obtained cDNAs were diluted 1:6 by DEPC water. The qPCR analyses were carried out using QuantStudio 6 Flex (Applied Biosystems, Foster City, CA, USA) with SYBR green I (Xceed qPCR SG Mix, Institute of Applied Biotechnologies, Prague, Czech Republic) detection according to the manufacturer’s protocol. […] Fluorescence data were recorded at the end of each amplification step. Relative expression levels of the target genes were calculated as fold changes in triplicates for each group using the 2^−ΔΔCt method [28] by normalization to the geometric mean of the Ct values of Sdha and Ywhaz, which were used as reference genes.

GPAM mRNA = test: RT-qPCR mRNA expression in dHepaRG cells; format: cell-based, human; details: single exposure, 6, 12 and 24 h
Protocol: (§4) Three concentrations were selected for each compound (non-toxic, non-toxic/slightly toxic and toxic).
(§5) All treatments were performed in triplicates and every experiment was performed three times. The cells were washed twice with ice cold phosphate-buffered saline (PBS), scrapped and stored at −80 °C until use. Total RNA from cells was isolated using TriReagent according to the manufacturer’s instructions (Biotech, Prague, Czech Republic). The purified RNA was dissolved in 40 µL of diethyl pyrocarbonate (DEPC)-treated water (0.01% DEPC in HPLC water, autoclaved) and stored at −80 °C. The measurement of absorbance at 260 and 280 nm using the NanoDrop ND-1000 UV–VIS Spectrophotometer (Thermo Fisher Scientific, Pardubice, Czech Republic) was used to determine RNA yields and purity. Subsequently, the RNA (4 µg) was treated with 2 U of DNase I (New England Biolabs, Ipswich, MA, USA) in a final volume of 30 µL for 25 min at 37 °C, 1.5 µL of 0.1 M ethylenediaminetetraacetic acid was added and the DNAse was inactivated by heat (5 min at 75 °C). […] Fluorescence data were recorded at the end of each amplification step. Relative expression levels of the target genes were calculated as fold changes in triplicates for each group using the 2^−ΔΔCt method [28] by normalization to the geometric mean of the Ct values of Sdha and Ywhaz, which were used as reference genes.

U87 = details: U87, 24 h, read-out: Previously Reported IC50 Values (24 h), cited from earlier work
PLIN4 mRNA = test: RT-qPCR mRNA expression in dHepaRG cells; format: cell-based, human; details: single exposure, 6, 12 and 24 h
Protocol: as §3
(§6) All treatments were performed in triplicates and every experiment was performed three times. The cells were washed twice with ice cold phosphate-buffered saline (PBS), scrapped and stored at −80 °C until use. Total RNA from cells was isolated using TriReagent according to the manufacturer’s instructions (Biotech, Prague, Czech Republic). The purified RNA was dissolved in 40 µL of diethyl pyrocarbonate (DEPC)-treated water (0.01% DEPC in HPLC water, autoclaved) and stored at −80 °C. The measurement of absorbance at 260 and 280 nm using the NanoDrop ND-1000 UV–VIS Spectrophotometer (Thermo Fisher Scientific, Pardubice, Czech Republic) was used to determine RNA yields and purity. […] Fluorescence data were recorded at the end of each amplification step. Relative expression levels of the target genes were calculated as fold changes in triplicates for each group using the 2^−ΔΔCt method [28] by normalization to the geometric mean of the Ct values of Sdha and Ywhaz, which were used as reference genes.

G6PC mRNA = test: RT-qPCR mRNA expression in dHepaRG cells; format: cell-based, human; details: single exposure, also at other than toxic concentrations
Protocol: (§7) Three concentrations were selected for each compound (non-toxic, non-toxic/slightly toxic and toxic). […] The expression changes of genes and proteins related to cholesterol metabolism were measured in both single and multiple exposure experiments.
as §6

ICAM-1 mRNA = test: RT-qPCR mRNA expression in dHepaRG cells; format: cell-based, human; details: the highest concentration
Protocol: as §7, §6

PPARα mRNA = test: RT-qPCR mRNA expression in dHepaRG cells; format: cell-based, human
Protocol: as §4, §5

PLIN2 mRNA = test: RT-qPCR mRNA expression in dHepaRG cells; format: cell-based, human; details: single exposure, the highest concentrations
Protocol: as §3, §6

dHepaRG cells [1] = test: MTT cell viability assay; format: cell-based, human; details: for toxicity toward dHepaRG cells compared with cancer cells: comparison of own IC50 with previously reported IC50 values; for cell viability: 24 and 72 h, MTT method and LDH leakage
Protocol: (§2) Cryopreserved HepaRG cells were obtained from Biopredic International (Rennes, France). Undifferentiated cells were seeded according to the supplier protocols in 96-well plates for the viability assays, and in 6-well plates for the mRNA and western blot measurements. The cells were cultured for two weeks in Williams E Medium with GlutaMAX™ (Invitrogen, Paisley, UK) supplemented with 10% fetal bovine serum, 2 mM glutamine, 100 IU/mL penicillin, 100 μg/mL streptomycin, 5 μg/mL insulin, and 50 μM hydrocortisone hemisuccinate. The cells were afterwards cultured for another 2-week period in the same medium supplemented with 1.7% DMSO. The medium was replaced every 2–3 days.
In the 96-well plates, viability was evaluated using the methylthiazole-tetrazolium (MTT) colorimetric assay. After 24 and 72-h exposure, 25 μL of MTT solution (3 mg of MTT in 1 mL of phosphate buffered saline, PBS) were added to each well. The plates were incubated at 37 °C for an additional 2 h, after which the medium was removed and the formed formazan was dissolved in 50 μL of 0.08 M HCl in isopropanol during 30 min shaking. The absorbance in each well was read at 570 and 690 nm using a spectrophotometer (Tecan Infinite M200, Tecan, Männedorf, Switzerland).

dHepaRG cells [2] = test: Lactate dehydrogenase (LDH) leakage; format: cell-based, human; details: dHepaRG cell viability, read-out: IC50 ± SD, LDH
Protocol: as §2
Lactate dehydrogenase (LDH) leakage was measured using the Invitrogen™ CyQUANT™ LDH Cytotoxicity Assay Kit according to the manufacturer guidelines using 96-well plates. After 24 and 72-h exposure, the culture medium was collected and diluted ten times by distilled water. Fifty µL of reaction mixture was added to each sample well and mixed. After 30 min of incubation at room temperature, 50 µL of stop solution was added to each well. To determine LDH activity, 680-nm absorbance value (background) was subtracted from the 490-nm absorbance before calculation of % cytotoxicity. Cell lysate was set as 100% of the LDH leakage.

MCF-7 = details: read-out: Previously Reported IC50 Values (24 h), cited from earlier work
[3] = dHepaRG cell viability, 24 h single exposure, read-out: IC50 ± SD, MTT
[4] = dHepaRG cell viability, 72 h single exposure, read-out: IC50 ± SD, MTT
[5] = dHepaRG cells, 24-h treatment, read-out: half-maximal inhibitory concentration of cell viability (approximate)
[6] = the higher concentrations after 12 and 24-h exposure

## C=C1C(=O)O[C@@H]2C[C@@]3(C)CCC[C@H](C)C3=C[C@H]12 [ATL, alantolactone]
STAT3
  total STAT3 protein level: decrease
HMGCR; single exposure, after 12 and 24 h
  HMGCR protein amount: decrease
HMGCR; single exposure, the higher concentrations after 12 and 24-h exposure
  HMGCR protein level: decrease
p-STAT3(Y705); all concentrations tested
  phosphorylated p-STAT3(Y705) protein amount: decreased; also recorded: inhibition
RIP1; 12-h exposure
  RIP1 protein expression: decreased level
RIP1; 24-h exposure, highest concentration
  RIP1 protein expression: decreased
ICAM-1; all concentrations after 12-h exposure
  ICAM-1 protein amount: significantly decreased
SREBP-2 (F); the highest concentration
  functional SREBP-2 (F) protein level: significantly decreased
NF-κB; 24-h exposure, the highest concentration
  NF-κB protein level: significant decrease
CYP19A1 mRNA; 20 and 40 µM, all the studied intervals (6, 12, 24 h)
  CYP19A1 mRNA level: induced
GPAM mRNA
  GPAM mRNA level: significantly decreased
U87; ref 10
  IC50: 20 µM
U87; ref 34
  IC50: 33 µM
PLIN4 mRNA
  PLIN4 mRNA level: decreased
G6PC mRNA
  G6PC mRNA expression: dysregulated
ICAM-1 mRNA; 12-h and 24-h exposure
  ICAM-1 mRNA amount: induced
PPARα mRNA; single exposure, toxic concentration after 24 h
  PPARα mRNA expression: inhibited
PLIN2 mRNA
  PLIN2 mRNA: induced
dHepaRG cells [1]
  toxicity toward dHepaRG cells compared with cancer cells: significantly lesser toxicity
dHepaRG cells [1]; [3]
  IC50: 58.9 ± 3.5 µM
dHepaRG cells [1]; [4]
  IC50: 57.2 ± 1 µM
dHepaRG cells [1]; dHepaRG cells
  highest non-toxic concentration: 30 µM
  cell viability: concentration-dependent decrease in the cell viability
dHepaRG cells [1]; [5]
  IC50: ~60 µM
dHepaRG cells [2]; 24 h single exposure
  IC50: 61.1 ± 1.8 µM
dHepaRG cells [2]; 72 h single exposure
  IC50: 57.8 ± 2 µM
MCF-7; MCF-7, 24 h
  IC50: 36 µM

## CC(C)=C1C/C=C(\C)CC/C=C(\C)CC1=O [GER, germacrone]
STAT3
  total STAT3 protein level: decrease
HMGCR; multiple exposure: four applications every 24 h, analyzed 12 h after the last, 30 μM ATL, 100 μM GER, 20 μM LOV
  HMGCR protein level: slight decrease
HMGCR; single exposure, only after 12-h exposure
  HMGCR protein amount: decrease
HMGCR; single exposure, the highest concentration after 12-h exposure
  HMGCR protein level: decrease
p-STAT3(Y705); both higher concentrations
  phosphorylated p-STAT3(Y705) protein amount: decreased
p-STAT3(Y705); [6]
  p-STAT3 (Y705) phosphorylation: inhibition
RIP1; 12-h exposure
  RIP1 protein expression: decreased level
ICAM-1; [6]
  ICAM-1 protein amount: significantly decreased
SREBP-2 (F); 12-h exposure
  functional SREBP-2 (F) protein level: increase
SREBP-2 (F); 24-h exposure
  functional SREBP-2 (F) protein level: no change in protein level
NF-κB; 12-h exposure
  NF-κB protein level: decreased level
CYP19A1 mRNA; 100 µM, 24-h exposure
  CYP19A1 mRNA level: induced the level by nearly two-fold; also recorded: significantly induced
CYP19A1 mRNA; both higher concentrations, 6- and 12-hour exposure
  CYP19A1 mRNA level: decreased
GPAM mRNA
  GPAM mRNA level: significantly decreased
U87; ref 36
  IC50: 175 µM
PLIN4 mRNA
  PLIN4 mRNA level: no significant change
G6PC mRNA
  G6PC mRNA expression: dysregulated
ICAM-1 mRNA; 6-h and 12-h exposure
  ICAM-1 mRNA amount: induced
PPARα mRNA; single exposure, 6, 12 and 24 h
  PPARα mRNA expression: no effect
PLIN2 mRNA
  PLIN2 mRNA: induced
dHepaRG cells [1]
  toxicity toward dHepaRG cells compared with cancer cells: similar
dHepaRG cells [1]; [3]
  IC50: 256 ± 5.7 µM
dHepaRG cells [1]; [4]
  IC50: 242 ± 17.4 µM
dHepaRG cells [1]; dHepaRG cells
  highest non-toxic concentration: 100 µM
  cell viability: concentration-dependent decrease in the cell viability
dHepaRG cells [1]; [5]
  IC50: ~250 µM
dHepaRG cells [2]; 24 h single exposure
  IC50: 244 ± 15.5 µM
dHepaRG cells [2]; 72 h single exposure
  IC50: 234 ± 13.4 µM
MCF-7; MCF7, 24 h, ref 11
  IC50: 195 µM
MCF-7; MCF7, 24 h, ref 37
  IC50: > 200 µM
